Assay results: the CheMixHub drug solubility set

Assay: xn = mol fraction of the nth substance listed, in the solute-free solvent

c1ccc(-c2ccc(C(c3ccccc3)n3ccnc3)cc2)cc1 (stereo not drawn) + CCCO + O
solubility (g/100 g solution)
Conditions	278.15 K	283.15 K	288.15 K	293.15 K	298.15 K	303.15 K	308.15 K	313.15 K	318.15 K
x2 = 0.03225	0.0336	0.0464	0.0633	0.0834	0.101	0.139	0.185	0.229	0.288
x2 = 0.06974	0.0833	0.114	0.154	0.202	0.244	0.332	0.436	0.54	0.674
x2 = 0.1139	0.174	0.22	0.295	0.402	0.547	0.719	0.918	1.13	1.35
x2 = 0.1666	0.308	0.417	0.558	0.724	0.884	1.18	1.52	1.9	2.34
x2 = 0.2307	0.467	0.573	0.784	1.06	1.3	1.74	2.22	2.82	3.53
x2 = 0.3103	0.618	0.836	1.12	1.45	1.81	2.37	3.04	3.83	4.72
x2 = 0.4117	0.601	0.91	1.27	1.77	2.4	3.06	3.87	4.77	5.68
x2 = 0.5454	0.774	1.05	1.42	1.86	2.37	3.09	3.98	5.09	6.3
x2 = 0.7297	0.768	1.11	1.56	2.08	2.68	3.46	4.32	5.36	6.55

CCOc1ccccc1C(N)=O + CC#N + CCO
323.15 K
Conditions	solubility (g/100 g solution)
x2 = 0.1	17.4
x2 = 0.2	19.8
x2 = 0.3	21.8
x2 = 0.4	23.3
x2 = 0.5	23.9
x2 = 0.6	23.3
x2 = 0.7	21.7
x2 = 0.8	19.3
x2 = 0.9	16.4

Cc1ncc(CO)c(CO)c1O.Cl + O + CCCO
solubility (g/100 g solution)
Conditions	278.15 K	283.15 K	288.15 K	293.15 K	298.15 K	303.15 K	308.15 K	313.15 K
x2 = 0.3	0.893	1.08	1.2	1.42	1.8	2.05	2.29	2.62
x2 = 0.4	1.59	1.9	2.23	2.65	3.25	3.59	4.15	4.99
x2 = 0.5	2.6	3.07	3.42	4.1	5	5.68	6.43	7.5
x2 = 0.6	3.83	4.45	4.91	6.02	7.03	8.29	9.47	11.3
x2 = 0.7	5.37	6.24	6.84	8.27	9.8	11.7	13.3	15.1
x2 = 0.8	6.99	8.36	9.28	10.7	12.8	15.4	17.8	19.6
x2 = 0.9	8.57	10.3	11.9	13.8	16	19	21.1	24.1

CCCSc1ccc2[nH]c(NC(=O)OC)nc2c1 + CCO + O
solubility (g/100 g solution)
Conditions	x2 = 0.0416	x2 = 0.0891	x2 = 0.1435	x2 = 0.2068	x2 = 0.2811	x2 = 0.3697	x2 = 0.4771	x2 = 0.61	x2 = 0.7787
288.95 K	0.00065	0.00225	0.0048	0.00531	0.0142	0.031	0.0476	0.0657	0.0669
293.15 K	0.00113	0.00279	0.0063	0.00878	0.0211	0.0396	0.0538	0.0706	0.0729
297.15 K	0.00141	0.0033	0.00736	0.0137	0.025	0.0476	0.0643	0.0856	0.0933
301.25 K	0.00181	0.00417	0.00932	0.0172	0.0324	0.0565	0.0753	0.0966	0.11
305.15 K	0.00257	0.00518	0.0114	0.0207	0.04	0.0682	0.0957	0.124	0.137
309.15 K	0.00328	0.00624	0.0127	0.025	0.048	0.0834	0.118	0.162	0.169
313.05 K	0.00395	0.00729	0.0156	0.0318	0.0594	0.104	0.149	0.204	0.208
317.25 K	0.00594	0.00852	0.0188	0.0386	0.0732	0.12	0.185	0.242	0.25

CC(S)C(=O)NCC(=O)O (stereo not drawn) + CCCCO + Cc1ccccc1
solubility (g/100 g solution)
Conditions	273.15 K	278.15 K	283.15 K	288.15 K	293.15 K	298.15 K	303.15 K	308.15 K	313.15 K	318.15 K
x2 = 0.2371	0.947	1.12	1.28	1.47	1.67	1.87	2.08	2.33	2.6	2.92
x2 = 0.4531	2.23	2.53	2.88	3.29	3.76	4.25	4.73	5.25	5.84	6.48
x2 = 0.6509	2.84	3.41	4.01	4.7	5.45	6.25	7.12	7.99	8.88	10
x2 = 0.8325	3.57	4.44	5.37	6.33	7.31	8.43	9.63	11	12.3	13.9

C#CC1(O)C=CC2C3CCC4=CC(=O)CCC4C3CCC21CC (stereo not drawn) + O + CO
288.15 K
Conditions	solubility (g/100 g solution)
x2 = 0.165	4.27
x2 = 0.3077	3.7
x2 = 0.4325	1.93
x2 = 0.5424	1.49
x2 = 0.6401	1
x2 = 0.8058	0.438
x2 = 0.8767	0.371
x2 = 0.9412	0.371

Cc1nc2n(c(=O)c1CCN1CCC(c3noc4cc(F)ccc34)CC1)CCCC2 + CC(C)O + O
solubility (g/100 g solution)
Conditions	278.15 K	283.15 K	288.15 K	293.15 K	298.15 K	303.15 K	308.15 K	313.15 K
x2 = 0.1139	0.369	0.473	0.605	0.788	0.98	1.22	1.52	1.88
x2 = 0.1664	1.41	1.66	1.99	2.47	2.94	3.63	4.31	5.25
x2 = 0.2308	2.72	3.2	3.94	4.7	5.66	6.83	8.2	9.98
x2 = 0.3101	4.21	4.9	5.85	6.92	8.29	9.97	11.9	14.2
x2 = 0.4116	4.95	5.81	6.87	8.09	9.69	11.5	13.5	16.3
x2 = 0.5454	4.55	5.34	6.38	7.46	8.78	10.4	12.3	14.6
x2 = 0.7297	2.53	3.02	3.63	4.31	5.08	6.06	7.28	8.7

c1ccc(-c2ccc(C(c3ccccc3)n3ccnc3)cc2)cc1 (stereo not drawn) + CC(O)CO + O
solubility (g/100 g solution)
Conditions	278.15 K	283.15 K	288.15 K	293.15 K	298.15 K	303.15 K	308.15 K	313.15 K	318.15 K
x2 = 0.02564	0.0702	0.0956	0.129	0.168	0.2	0.272	0.357	0.437	0.544
x2 = 0.0559	0.223	0.3	0.398	0.511	0.608	0.812	1.05	1.27	1.56
x2 = 0.09214	0.441	0.588	0.777	0.991	1.18	1.56	2	2.41	2.96
x2 = 0.1364	0.633	0.843	1.11	1.42	1.71	2.23	2.85	3.45	4.22
x2 = 0.1915	0.747	0.998	1.32	1.73	2.16	2.74	3.47	4.21	5.14
x2 = 0.2621	0.794	1.06	1.41	1.82	2.24	2.91	3.71	4.55	5.62
x2 = 0.3559	0.86	1.14	1.5	1.93	2.42	3.13	4	4.89	5.95
x2 = 0.4865	0.859	1.2	1.6	2.03	2.59	3.24	3.98	4.95	6.18
x2 = 0.6806	0.776	1.06	1.42	1.94	2.58	3.33	4.25	5.2	6.23
